Measured values published in US20230146455A1, “TREATMENT OF INFLAMMATORY DISEASES WITH PEPTIDES AND PHARMACEUTICAL COMPOSITIONS” (Yuyu Pharma, Inc., priority 2020, published 2023).
“And” between values parts separate entries of the source, which are not always exact repeats. Equal entries are not always repeated. Where a SMILES comes first, the peptide text is derived from it. [ ]: non-standard residue; d: D form. Hyp = O=C(O)[C@@H]1C[C@@H](O)CN1

What was measured:
[1] = system: cytokine and chemokine release in human peripheral blood mononuclear cells (hPBMCs); assay: Luminex multiplex, 30 cytokines and chemokines, LPS stimulated hPBMCs, main study (Example 8, Study 1), whole panel; type: cell-based; settings: LPS 5 ug/mL 24 hrs; up to 500 nM
Protocol: Human PBMCs frozen in a cryopreserve was thawed, washed with Hank's Balanced Salt Solution containing 10% Fetal bovine serum, and seeded onto a 24-well plate at a density of 1×10^6 cells/well with culture RPMI media containing 10% Fetal bovine serum in growth media in a 24 well plate for 12, 24, and 48 hrs and maintained at 37° C. in an atmosphere of 95% air and 5% CO2.
(§1) Human PBMCs were pretreated with YY-101, YDE-011, YDE-043 or reference compound; Xiidra® at various concentration (ranging from […] to 500 nM) for 2 h before stimulation. An equal volume of 0.5% DMSO was used as a vehicle control. Then, the cells were treated with LPS at 5 ug/ml, which was selected based on the pilot study. The supernatants from treated cells were harvested at 24 h and placed in a 96 well for Luminex cytokine & chemokine profiling using a Luminex 200 multiplex assay (Luminex; R&D system, USA).
(§2) The main study arm with triplicate wells per group in a 24-well plate: • 1. Blank • 2. PBMC: 0.5% DMSO • 3. PBMC+LPS (5 ug/ml) • 4. PBMC+YY-101 500 nM • 5. PBMC+YY-101 50 nM • 6. PBMC+YY-101 5 nM • 7. PBMC+YY-101 0.5 nM • 8. PBMC+LPS (5 ug/ml)+Xiidra® 500 nM • 9. PBMC+LPS (5 ug/ml)+Xiidra® 50 nM • 10. PBMC+LPS (5 ug/ml)+Xiidra® 5 nM • 11. PBMC+LPS (5 ug/ml)+Xiidra® 0.5 nM • 12. PBMC+LPS (5 ug/ml)+Xiidra® 0.05 nM • 13. PBMC+LPS (5 ug/ml)+Xiidra® 0.005 nM • 14. PBMC+LPS (5 ug/ml)+YY-101 500 nM • 15. PBMC+LPS (5 ug/ml)+YY-101 50 nM • 16. PBMC+LPS (5 ug/ml)+YY-101 5 nM • 17. PBMC+LPS (5 ug/ml)+YY-101 0.5 nM • 18. PBMC+LPS (5 ug/ml)+YY-101 0.05 nM • 19. PBMC+LPS (5 ug/ml)+YY-101 0.005 nM • 20. PBMC+LPS (5 ug/ml)+YDE-011 500 nM • 21. PBMC+LPS (5 ug/ml)+YDE-011 50 nM • 22. PBMC+LPS (5 ug/ml)+YDE-011 5 nM • 23. PBMC+LPS (5 ug/ml)+YDE-011 0.5 nM • 24. PBMC+LPS (5 ug/ml)+YDE-011 0.05 nM • 25. PBMC+LPS (5 ug/ml)+YDE-011 0.005 nM • 26. PBMC+LPS (5 ug/ml)+YDE-043 500 nM • 27. PBMC+LPS (5 ug/ml)+YDE-043 50 nM • 28. PBMC+LPS (5 ug/ml)+YDE-043 5 nM • 29. PBMC+LPS (5 ug/ml)+YDE-043 0.5 nM • 30. PBMC+LPS (5 ug/ml)+YDE-043 0.05 nM • 31. PBMC+LPS (5 ug/ml)+YDE-043 0.005 nM
Multiplex assay was used to measure 30 cytokines and chemokines. The 1:200 diluted cell supernatant and serial dilution of the standard were dispensed into a 96 well plate at 50 ul/well. Then, the pre-mixed cocktail of antibody-coated magnetic beads was dispensed at 50 ul/well and incubated at room temperature for 2 h in a horizontal orbital microplate shaker at 800±500 rpm. The beads were washed using a magnetic device to prevent loss. The biotin-antibody was dispensed in 50 ul of each well and incubated at room temperature for 1 h in a shaker at 800±500 rpm. […] The data was calculated with a standard five-parameter logistic nonlinear regression analysis of the data (xPonent software 4.2, USA). […]

TNF-alpha = assay: Example 8 main study Luminex, LPS hPBMCs: TNF-alpha; type: cell-based, human; settings: for TNF-alpha Concentration: individual replicates; for TNF-alpha Concentration (pg/ml), Mean: mean of replicates
Protocol: as §1, §2
(§3) Multiplex assay was used to measure 30 cytokines and chemokines. The 1:200 diluted cell supernatant and serial dilution of the standard were dispensed into a 96 well plate at 50 ul/well. Then, the pre-mixed cocktail of antibody-coated magnetic beads was dispensed at 50 ul/well and incubated at room temperature for 2 h in a horizontal orbital microplate shaker at 800±500 rpm. The beads were washed using a magnetic device to prevent loss. The biotin-antibody was dispensed in 50 ul of each well and incubated at room temperature for 1 h in a shaker at 800±500 rpm. After washing, streptavidin-PE was added at 50 ul/well and incubated at room temperature for 30 min in a shaker under the same conditions. Finally, after washing, wash buffer (100 ul/well) was added to the plate and incubated in a shaker for 2 min. The Luminex™ 200 setting were set according to the manufacturer's protocol. The data was calculated with a standard five-parameter logistic nonlinear regression analysis of the data (xPonent software 4.2, USA). Results were presented as concentration (ng/ml or pg/ml).

IL-2 = assay: Example 8 main study Luminex, LPS hPBMCs: IL-2; type: cell-based, human; settings: for IL-2 Concentration, individual wells / IL-2 MFI, individual wells / IL-2 MFI, Mean / IL-2 Concentration, Mean: 24 h; for IL-2 MFI, Mean: LPS alone Mean 80.5; for IL-2 Concentration, Mean: LPS alone Mean 3988.7
Protocol: as §1, §2, §3

[2] = PBMC + LPS(5 ug/ml) + test article 0.005 nM
[3] = PBMC + LPS(5 ug/ml) + test article 0.05 nM
[4] = PBMC + LPS(5 ug/ml) + test article 0.5 nM
[5] = PBMC + LPS(5 ug/ml) + test article 5 nM
[6] = PBMC + LPS(5 ug/ml) + test article 50 nM
[7] = PBMC + LPS(5 ug/ml) + test article 500 nM
[8] = at as low as 5 μM, LPS 5 ug/mL 24 hrs
[9] = PBMC + LPS(5 ug/ml) + compound 0.005 nM
[10] = PBMC + LPS(5 ug/ml) + compound 0.05 nM
[11] = PBMC + LPS(5 ug/ml) + compound 0.5 nM
[12] = PBMC + LPS(5 ug/ml) + compound 5 nM
[13] = PBMC + LPS(5 ug/ml) + compound 50 nM
[14] = PBMC + LPS(5 ug/ml) + compound 500 nM

In the case of `CC(C)C[C@H](NC(=O)CNC(=O)[C@H](CC(C)C)NC(=O)[C@H](CCC(N)=O)NC(=O)CNC(=O)[C@@H]1C[C@@H](O)CN1)C(=O)N[C@@H](C)C(=O)NCC(=O)N1CCC[C@H]1C(=O)N[C@@H](CCCCN)C(=O)O` [YDE-011] (H-[Hyp]GQLGLAGPK-OH), the “LPS-induced cytokine/chemokine levels, whole panel (in words)” value [1] is reported as “potently and significantly reduced pro-inflammatory cytokine/chemokine production”, the “TNF-alpha Concentration” value (TNF-alpha; [2]) is reported as 2116.1 pg/mL and 1988.8 pg/mL and 1861.0 pg/mL and the “TNF-alpha Concentration (pg/ml), Mean” value (TNF-alpha; [2]) is reported as 1988.6 pg/mL. For the same compound, the “TNF-alpha Concentration” value (TNF-alpha; [3]) was 1861.0 pg/ml and 2052.5 pg/ml (2×), the “TNF-alpha Concentration (pg/ml), Mean” value (TNF-alpha; [3]) was 1988.7 pg/mL and the “TNF-alpha Concentration” value (TNF-alpha; [4]) was 1344.6 pg/mL and 1988.8 pg/mL and 1797.0 pg/mL. For the same compound, the “TNF-alpha Concentration (pg/ml), Mean” value (TNF-alpha; [4]) was 1710.1 pg/mL, the “TNF-alpha Concentration” value (TNF-alpha; [5]) was 749.3 pg/mL and 1409.7 pg/mL and 1668.5 pg/mL and the “TNF-alpha Concentration (pg/ml), Mean” value (TNF-alpha; [5]) was 1275.8 pg/mL. The “TNF-alpha Concentration” value (TNF-alpha; [6]) was 1732.8 pg/mL and 2179.5 pg/mL and 442.1 pg/mL, the “TNF-alpha Concentration (pg/ml), Mean” value (TNF-alpha; [6]) was 1451.5 pg/mL and the “TNF-alpha Concentration” value (TNF-alpha; [7]) was 2116.1 pg/mL and 647.8 pg/mL and 1246.7 pg/mL. The “TNF-alpha Concentration (pg/ml), Mean” value (TNF-alpha; [7]) was 1336.9 pg/mL, the “LPS-induced TNF-α (in words)” value (TNF-alpha; [8]) was “significantly reduced” and the “IL-2 Concentration, individual wells” value (IL-2; [9]) was 2239.1 pg/mL and 2082.5 pg/mL and 2707.7 pg/mL. The “IL-2 MFI, individual wells” value (IL-2; [9]) was 58.0 and 56.0 and 64.0, the “IL-2 MFI, Mean” value (IL-2; [9]) was 59.3 and the “IL-2 Concentration, Mean” value (IL-2; [9]) was 2343.1 pg/mL. For the same compound, the “IL-2 Concentration, individual wells” value (IL-2; [10]) was 2707.7 pg/mL and 2473.6 pg/mL and 2824.6 pg/mL, the “IL-2 MFI, individual wells” value (IL-2; [10]) was 64.0 and 61.0 and 65.5 and the “IL-2 MFI, Mean” value (IL-2; [10]) was 63.5. For the same compound, the “IL-2 Concentration, Mean” value (IL-2; [10]) was 2668.6 pg/mL, the “IL-2 Concentration, individual wells” value (IL-2; [11]) was 2239.1 pg/mL and 1925.7 pg/mL and 2200.0 pg/mL and the “IL-2 MFI, individual wells” value (IL-2; [11]) was 58.0 and 54.0 and 57.5. The “IL-2 MFI, Mean” value (IL-2; [11]) was 56.5, the “IL-2 Concentration, Mean” value (IL-2; [11]) was 2121.6 pg/mL and the “IL-2 Concentration, individual wells” value (IL-2; [12]) was 1532.6 pg/mL and 1611.3 pg/mL and 2551.7 pg/mL. The “IL-2 MFI, individual wells” value (IL-2; [12]) was 49.0 and 50.0 and 62.0, the “IL-2 MFI, Mean” value (IL-2; [12]) was 53.7 and the “IL-2 Concentration, Mean” value (IL-2; [12]) was 1898.5 pg/mL. For the same compound, the “IL-2 Concentration, individual wells” value (IL-2; [13]) was 2160.8 pg/mL and 659.4 pg/mL and 2082.5 pg/mL, the “IL-2 MFI, individual wells” value (IL-2; [13]) was 57.0 and 38.0 and 56.0 and the “IL-2 MFI, Mean” value (IL-2; [13]) was 50.3. For the same compound, the “IL-2 Concentration, Mean” value (IL-2; [13]) was 1634.3 pg/mL, the “IL-2 Concentration, individual wells” value (IL-2; [14]) was 2941.4 pg/mL and 579.2 pg/mL and 1729.4 pg/mL and the “IL-2 MFI, individual wells” value (IL-2; [14]) was 67.0 and 37.0 and 51.5. For the same compound, the “IL-2 MFI, Mean” value (IL-2; [14]) was 51.8, the “IL-2 Concentration, Mean” value (IL-2; [14]) was 1750.0 pg/mL and the “LPS-induced IL-2 (in words)” value (IL-2; [8]) was “significantly reduced”.
